Consider four molecules from patent publication US9895344B2, “Treating various disorders with 7,8-dihydroxyflavone and derivatives thereof” (EMORY UNIVERSITY, priority 2008, dated 2018).

SMILES strings stand for the structures.

For data set [1], the system named is immobility. Put plainly: Forced swim test, 5 days intraperitoneal. The format is in vivo, mice. The note with it: intraperitoneally for 5 days; imipramine 20 mg/kg, amitryptyline 15 mg/kg, 7,8-dihydroxyflavone 5 mg/kg; FIG. 25.
Procedure: Adult male mice (2-3 months old, n=8) were randomly submitted, without a pre-swim, to a forced swim test of 6 minutes with immobility recorded in the last 4 minutes. Mice were injected intraperitoneally for 5 days with saline, imipramine (20 mg/kg), amitryptyline (15 mg/kg), or 7,8-dihydroxyflavone (5 mg/kg). The mice were allowed to adapt to the test room for 2 days, and the mice were placed in a clear glass cylinder with a diameter of 16 cm, half-filled with clear water at 24° C. […] Data are presented as mean±SEM; *p<0.05 against vehicle, **P<0.01 against vehicle and ***P<0.0001 against vehicle, student t-test.
For the next data set, the target named is T1, TrkB F616A (Mus musculus, UniProt P15209, F616A).
T1 construct: endogenous in cells; host or cells: cortical neurons of TrkB F616A knock-in mice
The data set can be described thus: TrkB phosphorylation in cortical neurons from TrkB F616A knockin mice. The format is cell-based. The note with it: inhibitor 100 nM, pretreated 30 minutes. The procedure: (§1) To explore whether the neuroprotective action of 7,8-dihydroxyflavone is dependent on TrkB activation in vivo, TrkB F616A knockin mice were used. […] To further assess whether 7,8-dihydroxyflavone can mimic BDNF, cortical neurons were prepared from TrkB F616A knockin mice. The cortical neurons were pretreated for 30 minutes with either K252a Trk tyrosine kinase inhibitor (100 nM) or 1NMPP1 inhibitor (100 nM) followed by 0.5 μM 7,8-dihydroxyflavone for 30 minutes.

A further data set concerns Akt and Erk1/2. The data set can be described thus: Akt and Erk1/2 activation in cortical neurons from TrkB F616A knockin mice. The format is cell-based. The conditions noted are these: inhibitor 100 nM. How it is done:
as §1

For data set [2], the target named is T2, TrkB (Rattus norvegicus, UniProt Q63604). Put plainly: Western analysis of TrkB activation in hippocampal neurons. The note with it: FIG. 10. The format is cell-based. Set-up: endogenous in cells; host or cells: primary hippocampal neurons. The procedure: To further examine whether 7,8-dihydroxyflavone can stimulate TrkB-mediated downstream signaling cascades, Western analysis was performed.
To further test that the stimulatory effect of 7,8-dihydroxyflavone is mediated through TrkB, cells were either untreated or treated with K252a, a selective inhibitor of the tyrosine kinase activity of the Trk family of neutrophin receptors.

Data set [3] has as its target T3, TrkB (Mus musculus, UniProt P15209).
T3 construct: from tissue; host or cells: mouse brain
The data set can be described thus: Time course of TrkB activation in mouse brain. Format: in vivo, C57BL/6J mice. How it is done:
To compare the stimulatory effect on TrkB receptor in mouse brain, 1 mg/kg of these compounds was injected into C57BL/6J mice and monitored TrkB activation at different time points (see FIG. 28). […] In contrast, 7,8-DHF triggered TrkB activation 2 h after oral injection and peaked at 4 h and TrkB activity progressively faded away. The TrkB activity was demonstrable even at 16 h (FIG. 28).

For another data set, the system named is caspase-3 activation. The data set can be described thus: Active caspase-3 ELISA in glutamate-treated cortical neurons. The conditions noted are these: 50 μM glutamate for 16 hours. The format is cell-based, rat. The procedure:
To quantitatively compare the anti-apoptotic activity of 7,8-DHF and 4′-DMA-7,8-DHF, cortical neurons were prepared from E16 rat embryonic cells and pretreated with various indicated concentrations of 4′-DMA-7,8-DHF and 7,8-DHF for 30 min, followed by 50 μM glutamate for 16 hours. The cell lysates were quantitatively analyzed with an active caspse-3 ELISA.
A general note: An ELISA detects its analyte on a solid surface through an enzyme-linked reagent.

For data set [4], the system named is KA-induced neuronal apoptosis. The data set can be described thus: Kainic acid time course assay, oral TrkB agonists (caspase-3 immunoblot of brain lysates). Format: in vivo, C57BL/6J mice. The note with it: 1 mg/kg orally, KA 20 mg/kg i.p., FIG. 30 left. The procedure: Male C57BL/6 mice age 60 days were orally injected with a single dose of 4′-DMA-7,8-DHF or 7,8-DHF (1 mg/kg each). KA (20 mg/kg) was i.p. injected. Animals were continually monitored for 2 hours for the onset of seizure activity. At 0, 4 and 8 hours following TrkB agonist treatment, the animals were sacrificed and the brain lysates were analyzed by immunoblotting with p-TrkB-Y817, active caspase-3 and total TrkB antibodies.
To investigate whether these compounds exert any neuroprotective effects in animals, a time course assay was conducted.

The test system of data set [5] is KA-induced caspase-3 activation. The data set can be described thus: KA-induced neuronal cell death in TrkB F616A mice, oral TrkB agonists. The format is in vivo, TrkB F616A knock-in mice. The procedure:
TrkB F616A knockin mice (2-3 months old) were fed 1NMPP1 (25 μM) in drinking water one day before pharmacological reagent treatment. The next day, the mice were orally injected with 7,8-DHF or 4′-DMA-7,8-DHF (5 mg/kg) 4 hours before kainic acid (20 mg/kg). The control mice were injected with saline, 1NMPP1, kainic acid alone or administrated 7,8-DHF or 4′-DMA-7,8-DHF 4 hours before kainic acid. In 4 days, the mice were sacrificed and brains were homogenized and ultra-centrifuged. The supernatant (40 μg) was employed for SDS-PAGE and immunoblotting analysis with indicated antibodies, respectively.
To explore whether the neuroprotective effect of these small molecules is dependent on TrkB activation in vivo, TrkB F616A knock-in mice were used.

The test system of data set [6] is progenitor proliferation in hippocampus. The data set can be described thus: Neurogenesis analysis in hippocampus (BrdU). Format: in vivo, C57BL/6J mice. The conditions noted are these: 5 mg/kg daily for 21 days, compared to vehicle control, FIGS. 32 and 33. The procedure:
Adult male mice (2-3 months old) were orally injected with saline, 4′-DMA-7,8-DHF and 7,8-DHF (5 mg/kg) for 21 days. Then BrdU (50 mg/kg) was i.p. injected. In 2 hours, the mice were perfused with 4% paraformaldehyde. Immunohistochemical staining was performed on formalin-fixed paraffin-embedded sections. Sections from brain were cut, deparaffinized in xylene and rehydrated in graded alcohols. The slides were boiled in 10 mM citric acid (pH 6.0) for 10 minutes followed by an incubation in 2 N HCl for 10 minutes in room temperature. The slides were then permeabilized and blocked with 1% BSA in 0.2% PBST. The incorporated BrdU were stained using anti-BrdU-FITC (Abcam, Inc; Cambridge, Mass.) at 4° C. for 16 hours. After three washes in PBS, the cells were stained with DAPI for another 10 minutes at room temperature. The slides were mounted with AquaMount (Lerner Laboratories; Pittsburgh, Pa.) containing 0.01% 1,4-diazobicyclo(2,2,2)octane and examined under a fluorescence microscope.
To test whether increasing TrkB activation by 4′-dimethylamino-7,8-dihydroxyflavone would elevate neurogenesis, adult male C57BL/6J mice were injected daily for 21 days with either vehicle, 7,8-DHF, or 4′-DMA-7,8-DHF (5 mg/kg). At the end of treatment (day 21), the animals were injected with BrdU (50 mg/kg, i.p.) to label the dividing cells and were sacrificed 2 hours later. […]

Data set [7] concerns immobility. Put plainly: Forced swim test after 21 days oral treatment. The format is in vivo, C57BL/6J mice. The conditions noted are these: 5 mg/kg, oral injection, FIG. 34. How it is done: Adult male mice (2-3 months old) were randomly submitted to a forced swim test without a pre-swim. Saline, 4′-DMA-7,8-DHF and 7,8-DHF (5 mg/kg) were orally injected for 21 days. The mice were allowed to adapt to the test room for 2 days. The mice were placed in a clear glass cylinder with a diameter of 16 cm, half-filled with clear water at 24° C.
(§2) To explore whether 4′-DMA-7,8-DHF and 7,8-DHF have any antidepressant effect, a forced swim test (6 minutes, immobility recorded in the last 4 minutes) was conducted after chronic treatment of male C57BL/6J mice (8 mice/group) for 21 days via oral injection.

Data set [8] addresses T3, TrkB. The data set can be described thus: Immunoblotting of brain lysates from forced swim test mice: TrkB. The format is in vivo. The note with it: 5 mg/kg, 21 days oral, anti-p-TrkB 817, FIG. 35. The procedure: as §2
For orientation: Immunoblotting shows a protein as a band on a membrane.

A further data set relates to immobility time. The data set can be described thus: Forced swim test in TrkB F616A knockin mice with saline or 1NMPP1 pretreatment. Format: in vivo. The conditions noted are these: drugs for five days, FIG. 36. How it is done: To assess whether the behavior responses by 7,8-DHF and its derivative are mediated by TrkB receptor, TrkB F616A knockin mice were utilized. The transgenic mice were subjected to saline or 1NMPP1 pretreatment (25 μM), respectively (drinking water provided one day prior to drug injection and maintained throughout whole experiment). The control and/or drugs were provided for five days. […] (Data presented in FIGS. 34, 35, and 36 as mean±SEM; *p<0.05 against vehicle, #P<0.01 against vehicle and ***P<0.0001 against vehicle, student t-test.)

Data set [9] is described as follows: Toxicity after 3-week chronic treatment (organ pathology, complete blood count). The note with it: mouse, in vivo. Format: in vivo, mice. The procedure: To explore whether 4′-dimethylamino-7,8-dihydroxyflavone and 7,8-dihydroxyflavone have any intolerable toxicity, the major organs from mice treated with both compounds at 5 mg/kg/day for 3 weeks were analyzed.

The next data set has as its target TrkA (Mus musculus, UniProt Q3UFB7). Put plainly: Immunoblotting of brain lysates from forced swim test mice: TrkA. Format: in vivo. Set-up: from tissue; host or cells: mouse brain. The note with it: 5 mg/kg, 21 days oral, anti-p-TrkA 794, FIG. 35. The procedure:
as §2

The target in data set [10] is T2, TrkB. Put plainly: TrkB activation in primary cortical neurons (p-TrkB Y817 immunoblotting). The format is cell-based. Set-up: endogenous in cells; host or cells: primary cortical neurons. The procedure:
Primary cultured rat cortical neurons were prepared as follows. E17 rat pups were decapitated and cortex was extirpated, cross chopped, and suspended by pipetting for separation in 5% fetal calf serum (FCS), 5% horse serum (HS) DMEM. The cell suspension was then centrifuged at 250×g for 5 minutes. This operation was repeated again. Cells were seeded into polyethyleneimine-coated 10 cm^2 dishes and 12-well plates including coated-coverslips and incubated at 37° C. in 5% CO2/95% air. After 3 hours, the culture medium was changed to Neurobasal containing B-27 supplement (Invitrogen; Carlsbad, Calif.) and incubated for 4 days. For maintenance, half of the culture medium was changed to fresh Neurobasal/B27 every 4 days. After 1 week, the dished cultured neurons were ready for use.
To compare the TrkB activation by the synthetic compounds of Examples 9 and 10 (see FIG. 26), primary cortical cultures were prepared. The cortical neurons were treated with 500 nM of various compounds for 30 min and collected the cell lysates. […] Replacing the H-bond acceptor O atom with hydrogen bond donor NH reduced its stimulatory effect. […] In comparison, 7,8-DHF provoked TrkB activation with the minimal concentration of 100 nM (FIG. 27, right panels).

Where [11] appears, read: 1 mg/kg, oral injection, FIG. 28.

T3 sequence (P15209 32-821): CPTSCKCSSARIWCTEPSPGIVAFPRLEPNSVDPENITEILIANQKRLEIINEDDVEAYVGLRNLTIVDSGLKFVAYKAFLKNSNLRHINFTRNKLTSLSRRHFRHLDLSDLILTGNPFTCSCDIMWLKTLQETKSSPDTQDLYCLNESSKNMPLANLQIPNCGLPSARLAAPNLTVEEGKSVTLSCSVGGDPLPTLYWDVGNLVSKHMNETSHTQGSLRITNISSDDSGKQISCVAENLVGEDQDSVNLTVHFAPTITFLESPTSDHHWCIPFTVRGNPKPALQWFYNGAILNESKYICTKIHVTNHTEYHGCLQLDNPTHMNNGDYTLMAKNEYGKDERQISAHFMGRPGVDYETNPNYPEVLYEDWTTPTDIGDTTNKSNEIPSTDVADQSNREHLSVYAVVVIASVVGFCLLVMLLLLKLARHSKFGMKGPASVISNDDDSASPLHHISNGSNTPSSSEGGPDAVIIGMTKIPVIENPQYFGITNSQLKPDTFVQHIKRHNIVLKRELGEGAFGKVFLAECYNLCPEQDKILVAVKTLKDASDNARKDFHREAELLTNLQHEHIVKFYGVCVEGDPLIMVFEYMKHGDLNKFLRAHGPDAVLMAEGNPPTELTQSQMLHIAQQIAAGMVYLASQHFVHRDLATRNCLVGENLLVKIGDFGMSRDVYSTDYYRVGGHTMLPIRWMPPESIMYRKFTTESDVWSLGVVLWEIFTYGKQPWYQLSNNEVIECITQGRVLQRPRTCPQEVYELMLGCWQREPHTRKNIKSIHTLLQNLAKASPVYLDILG
T2 sequence (Q63604 32-821): as the sequence (P15209 32-821) above, with T3M, S9T, A10T, V32I, R63K, S84G, M153T, L185I, S394T, S770N counted along it
T1 sequence (P15209 32-821 F616A): as the sequence (P15209 32-821) above, with F585A counted along it
TrkA, sequence (Q3UFB7 34-799): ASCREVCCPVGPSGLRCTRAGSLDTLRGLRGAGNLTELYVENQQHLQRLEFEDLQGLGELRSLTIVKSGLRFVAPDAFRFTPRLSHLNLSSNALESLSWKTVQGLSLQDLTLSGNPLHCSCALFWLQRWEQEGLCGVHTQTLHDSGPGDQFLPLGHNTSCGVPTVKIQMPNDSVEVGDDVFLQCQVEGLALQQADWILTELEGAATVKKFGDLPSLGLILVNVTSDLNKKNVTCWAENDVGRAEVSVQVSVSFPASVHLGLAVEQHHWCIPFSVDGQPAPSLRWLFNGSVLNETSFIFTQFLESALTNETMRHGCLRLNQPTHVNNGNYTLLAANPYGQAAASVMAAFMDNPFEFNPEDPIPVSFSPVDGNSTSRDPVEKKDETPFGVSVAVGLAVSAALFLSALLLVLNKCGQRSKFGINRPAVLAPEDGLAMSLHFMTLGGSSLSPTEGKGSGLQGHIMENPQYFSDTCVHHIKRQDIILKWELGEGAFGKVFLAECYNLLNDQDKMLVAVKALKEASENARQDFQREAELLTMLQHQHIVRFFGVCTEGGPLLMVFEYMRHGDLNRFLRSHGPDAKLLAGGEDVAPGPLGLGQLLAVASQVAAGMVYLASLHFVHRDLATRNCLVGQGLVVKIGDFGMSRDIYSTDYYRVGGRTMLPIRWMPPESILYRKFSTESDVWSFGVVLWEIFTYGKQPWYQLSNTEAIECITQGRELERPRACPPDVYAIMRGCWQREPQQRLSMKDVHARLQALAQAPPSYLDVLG

As to `CN(C)CCC=C1c2ccccc2CCc2ccccc21` [amitryptyline], in the data set with immobility [1], the swimming immobility entry is “decreased”.

`CN(C)CCCN1c2ccccc2CCc2ccccc21` [imipramine]: in the data set on immobility [1], the swimming immobility entry is “decreased”.

In the case of `COC(=O)[C@@]1(O)C[C@H]2O[C@]1(C)n1c3ccccc3c3c4c(c5c6ccccc6n2c5c31)C(=O)NC4` [K252a], on TrkB F616A, the “blocking of BDNF-provoked TrkB phosphorylation” value was “not”. The “blocking of 7,8-dihydroxyflavone-provoked TrkB phosphorylation” value on TrkB F616A (0.5 μM 7,8-dihydroxyflavone) is recorded as “not”. Also, the “blocking of BDNF-triggered Akt and Erk1/2 activation” value in the data set on Akt and Erk1/2 is “not”. In addition, the “effect on TrkB tyrosine phosphorylation in cells exposed to 7,8-dihydroxyflavone” value on TrkB [2] is “blocked TrkB tyrosine phosphorylation”.

As for `CN(C)c1ccc(-c2cc(=O)c3ccc(O)c(O)c3o2)cc1` [4′-DMA-7,8-DHF, 4′-Dimethylamino-7,8-dihydroxyflavone], at TrkB [3] (setting [11]), the “TrkB activity at 16 h” value is reported as “partially decayed”, the “time at which TrkB activation was elicited” value is recorded as 1 h and the “time at which TrkB activity peaked” value is reported as 8 h. Also, on TrkB [3] (mouse, in vivo), the “agonistic effect on TrkB relative to 7,8-DHF” value is on record as “about 10 fold” and the “duration of agonistic effect in animals relative to 7,8-DHF” value was “sustained longer”. Also, the “inhibitory effect on caspase-3 activation at 10 nM” value with caspase-3 activation (10 nM) was “more robust inhibitory effect than 7,8-DHF”. In the data set on caspase-3 activation (50 nM or higher concentrations, FIG. 29), the “Glutamate-provoked caspase-3 activation” value was “substantially blocked”. Further, the “KA-induced neuronal apoptosis over time” value in [4] was “gradually decreased”. Further, the “KA-caused caspase-3 activation” value in [5] (5 mg/kg orally 4 hours before kainic acid (20 mg/kg), FIG. 31) was “markedly diminished”. Further, the “protective effect after 1NMPP1 pretreatment” value in data set [5] (1NMPP1 (25 μM) in drinking water, FIG. 31 top) is given as “abolished”. In data set [5] (FIG. 31, 2nd panel), the “TrkB phosphorylation after 1NMPP1 pretreatment” value is “notably blocked”. Besides, the “neurogenesis (BrdU)” value in [6] is given as “increased neurogenesis”. The swimming immobility result in the data set on immobility [7] was “evidently reduced the immobility”. Further, at TrkB [8], the “TrkB activation in mouse brain” value is on record as “provoke TrkB”. In the data set on immobility time (1NMPP1 25 μM in drinking water), the “immobility time after 1NMPP1 treatment” value is listed as “neither 4′-DMA-7,8-DHF nor 7,8-DHF had any significant effect”. Moreover, the “immobility time, saline group” value in the data set with immobility time is reported as “substantially reduced the immobility time”. Also, in data set [9], the “complete blood count (CBC) versus control saline-treated mice” value was “no significant difference” and the “toxicity to the mice” value was “neither compound was toxic”. For the same molecule, on TrkA, the “TrkA activation in mouse brain” value is “not TrkA activation”. Besides, on TrkB [10] (500 nM, 30 min, FIG. 27 left), the TrkB activation result is on record as “robustly provoked TrkB activation”. In addition, the “minimal concentration triggering TrkB activation (titration assay)” value on TrkB [10] (FIG. 27 right) turned out to be 10 nM.
